From US20090197955A1, “METHODS OF IMPROVING DHA DEPOSITION AND RELATED FUNCTION AND/OR DEVELOPMENT” (Monsanto Company, priority 2008, published 2009)

Test: Fatty acid composition of pig tissues (ham, loin, belly, skin) after feeding SDA ethyl ester diets, 35 day study
Type: in vivo, pigs
Conditions: 35 days
Method: A 35 day study was conducted to determine whether pigs fed a diet containing SDA could enhance tissues with improved fatty acid profiles including increased levels of SDA, EPA, and DHA.
Four test diets (Treatment 2, 3, 4, and 5) with SDA ethyl ester substituted for corn oil to provide 0.2, 0.4, 0.6 and 0.8% (w/w SDA active ingredient, as-is basis) were fed ad libitum to one pen of four pigs throughout the 35-day test period Table 4). All diets were fed in meal form. Treatment 6 was fed the same diet as Treatment 5, but for a duration of only 21 days.
All pigs were individually weighed at initiation of the acclimation and test period, and immediately prior to slaughter. Feed consumption per pen was recorded. Upon completion of the feeding period, pigs were slaughtered for tissue collection and carcass evaluation. Pigs were slaughtered using standard industry practices (electrical stunning, exsanguinations, scalding, dehairing and evisceration). Live weights prior to slaughter and hot carcass weights were recorded. The left side of each carcass was fabricated and samples were obtained from the loin (longissimus muscle), ham (semimembranosus muscle) and belly (a section from the center of the belly) for sensory evaluation, fatty acid, and proximate analysis. Prior to removing the sample for sensory and fatty and proximate analysis from the belly the firmness of the belly was evaluated using a flop test. At 24 hr postmortem fat thickness (10th rib), loin eye area (10th rib), visual color, firmness and marbling, Minolta color (L*a*b*), pH, and drip loss were measured.
In order to evaluate the fatty acid composition of pig tissues (loin, ham, skin, and belly), samples were stored at −80° C. until evaluation. After thawing, ˜22 g of fresh pig tissue was chopped into small pieces and thoroughly mixed before 10 g was sub sampled and lyophilized. Lyophilized samples were ground in 30 ml Sarstedt tubes with two ball bearings using a Mega Grinder. Ground samples (loin and ham: 50 mg; skin: 100 mg; belly: 150 mg; diet: 500 mg) were directly methylated with sulfuric acid in methanol (loin and ham: 1 mL; skin: 3 mL; belly: 10 mL; diet: 1.5 mL) sealed in the presence of butylated hydroxytoluene (50 mg BHT in 100 ml reagent) in reflux conditions of 90° C. Resultant fatty acid methyl esters (FAME's) were separated by capillary gas chromatography (GC) and detected by flame ionization detector (FID). The column used was a Supelco Omegawax 250 capillary column with dimensions of 30 m×0.25 mm×0.25 μm film thickness. The run time was 32 minutes. Peaks were identified based on their relative retention time compared to a FAME reference mixture. Quantification was achieved by using an internal standard (c15:0 triacylglyceride (TAG) for pig tissue samples and c17:0 TAG for diet samples). Results are reported as FA g/100 g fat with theoretical response correction.
For Table 6 below, each value represents g/100 g total fatty acids a mean of 4 samples (1 sample from each of 4 pigs) per treatment.

In the case of CC/C=C\C/C=C\C/C=C\C/C=C\CCCCC(=O)O [SDA, stearidonic acid], the “12:0, ham” value (0.2% SDA feed) is reported as 0.06 g FA per 100 g fat, the “14:0, ham” value (0.2% SDA feed) is reported as 1.06 g FA per 100 g fat and the “16:0, ham” value (0.2% SDA feed) is reported as 21.24 g FA per 100 g fat. For the same molecule, the “16:1 n-7, ham” value (0.2% SDA feed) was 3.58 g FA per 100 g fat, the “16:1 n-9, ham” value (0.2% SDA feed) was 0.26 g FA per 100 g fat and the “18:0, ham” value (0.2% SDA feed) was 10.13 g FA per 100 g fat. For the same molecule, the “18:1 n-7, ham” value (0.2% SDA feed) was 4.55 g FA per 100 g fat, the “18:1 n-9, ham” value (0.2% SDA feed) was 40.91 g FA per 100 g fat and the “18:2 n-6 (LA), ham” value (0.2% SDA feed) was 8.86 g FA per 100 g fat. The “18:3 n-3 (ALA), ham” value (0.2% SDA feed) was 0.20 g FA per 100 g fat, the “18:3 n-6 (GLA), ham” value (0.2% SDA feed) was 0.08 g FA per 100 g fat and the “18:4 n-3 (SDA), ham” value (0.2% SDA feed) was 0.03 g FA per 100 g fat. The “20:0, ham” value (0.2% SDA feed) was 0.16 g FA per 100 g fat, the “20:1 n-7, ham” value (0.2% SDA feed) was 0.04 g FA per 100 g fat and the “20:1 n-9, ham” value (0.2% SDA feed) was 0.69 g FA per 100 g fat. The “20:1 n-11, ham” value (0.2% SDA feed) was 0.04 g FA per 100 g fat, the “20:2 n-6, ham” value (0.2% SDA feed) was 0.38 g FA per 100 g fat and the “20:3 n-3, ham” value (0.2% SDA feed) was 0.03 g FA per 100 g fat. The “20:3 n-6 (DGLA), ham” value (0.2% SDA feed) was 0.29 g FA per 100 g fat, the “20:4 n-3 (ETA), ham” value (0.2% SDA feed) was 0.09 g FA per 100 g fat and the “20:4 n-6 (AA), ham” value (0.2% SDA feed) was 1.96 g FA per 100 g fat. The “20:5 n-3 (EPA), ham” value (0.2% SDA feed) was 0.17 g FA per 100 g fat, the “22:0, ham” value (0.2% SDA feed) was 0.03 g FA per 100 g fat and the “22:1 n-9, ham” value (0.2% SDA feed) was 0.00 g FA per 100 g fat. The “22:1 n-11, ham” value (0.2% SDA feed) was 0.00 g FA per 100 g fat, the “22:1 n-13, ham” value (0.2% SDA feed) was 0.00 g FA per 100 g fat and the “22:2 n-7, ham” value (0.2% SDA feed) was 0.00 g FA per 100 g fat. For the same molecule, the “22:3 n-6, ham” value (0.2% SDA feed) was 0.24 g FA per 100 g fat, the “22:5 n-3 (DPA), ham” value (0.2% SDA feed) was 0.39 g FA per 100 g fat and the “22:6 n-3 (DHA), ham” value (0.2% SDA feed) was 0.09 g FA per 100 g fat. For the same molecule, the “24:1 n-9, ham” value (0.2% SDA feed) was 0.04 g FA per 100 g fat, the “Total PUFA, ham” value (0.2% SDA feed) was 12.82 g FA per 100 g fat and the “Total monoenes, ham” value (0.2% SDA feed) was 50.11 g FA per 100 g fat. The “Total n-3, ham” value (0.2% SDA feed) was 1.01 g FA per 100 g fat, the “Total n-6, ham” value (0.2% SDA feed) was 11.81 g FA per 100 g fat and the “Total saturates, ham” value (0.2% SDA feed) was 32.68 g FA per 100 g fat. The “n-6/n-3, ham” value (0.2% SDA feed) was 11.69, the “DHA enrichment in ham” value (0.2-0.8% SDA) was “enriched in ham in a dose dependent manner” and the “DPA enrichment in loin and ham tissues” value (0.2-0.8% SDA) was “enriched in loin and ham tissues in a dose dependent manner”. For the same molecule, the “SDA, ETA and EPA enrichment in belly, loin, ham and skin tissues” value (0.2-0.8% SDA) was “enriched in belly, loin, ham, and skin tissues in a dose dependent manner”, the “12:0, ham” value (0.4% SDA feed) was 0.06 g FA per 100 g fat and the “14:0, ham” value (0.4% SDA feed) was 1.10 g FA per 100 g fat. For the same molecule, the “16:0, ham” value (0.4% SDA feed) was 21.45 g FA per 100 g fat, the “16:1 n-7, ham” value (0.4% SDA feed) was 3.45 g FA per 100 g fat and the “16:1 n-9, ham” value (0.4% SDA feed) was 0.25 g FA per 100 g fat. For the same molecule, the “18:0, ham” value (0.4% SDA feed) was 10.74 g FA per 100 g fat, the “18:1 n-7, ham” value (0.4% SDA feed) was 4.28 g FA per 100 g fat and the “18:1 n-9, ham” value (0.4% SDA feed) was 39.94 g FA per 100 g fat. For the same molecule, the “18:2 n-6 (LA), ham” value (0.4% SDA feed) was 9.18 g FA per 100 g fat, the “18:3 n-3 (ALA), ham” value (0.4% SDA feed) was 0.26 g FA per 100 g fat and the “18:3 n-6 (GLA), ham” value (0.4% SDA feed) was 0.09 g FA per 100 g fat. The “18:4 n-3 (SDA), ham” value (0.4% SDA feed) was 0.03 g FA per 100 g fat, the “20:0, ham” value (0.4% SDA feed) was 0.16 g FA per 100 g fat and the “20:1 n-7, ham” value (0.4% SDA feed) was 0.04 g FA per 100 g fat. For the same molecule, the “20:1 n-9, ham” value (0.4% SDA feed) was 0.66 g FA per 100 g fat, the “20:1 n-11, ham” value (0.4% SDA feed) was 0.04 g FA per 100 g fat and the “20:2 n-6, ham” value (0.4% SDA feed) was 0.36 g FA per 100 g fat. For the same molecule, the “20:3 n-3, ham” value (0.4% SDA feed) was 0.04 g FA per 100 g fat, the “20:3 n-6 (DGLA), ham” value (0.4% SDA feed) was 0.32 g FA per 100 g fat and the “20:4 n-3 (ETA), ham” value (0.4% SDA feed) was 0.14 g FA per 100 g fat. For the same molecule, the “20:4 n-6 (AA), ham” value (0.4% SDA feed) was 1.90 g FA per 100 g fat, the “20:5 n-3 (EPA), ham” value (0.4% SDA feed) was 0.23 g FA per 100 g fat and the “22:0, ham” value (0.4% SDA feed) was 0.04 g FA per 100 g fat. For the same molecule, the “22:1 n-9, ham” value (0.4% SDA feed) was 0.01 g FA per 100 g fat, the “22:1 n-11, ham” value (0.4% SDA feed) was 0.00 g FA per 100 g fat and the “22:1 n-13, ham” value (0.4% SDA feed) was 0.00 g FA per 100 g fat. The “22:2 n-7, ham” value (0.4% SDA feed) was 0.00 g FA per 100 g fat, the “22:3 n-6, ham” value (0.4% SDA feed) was 0.26 g FA per 100 g fat and the “22:5 n-3 (DPA), ham” value (0.4% SDA feed) was 0.44 g FA per 100 g fat. The “22:6 n-3 (DHA), ham” value (0.4% SDA feed) was 0.08 g FA per 100 g fat.
